Test [1] concerns the target Human immunodeficiency virus type 1 reverse transcriptase (Human immunodeficiency virus 1) (UniProt Q72547). In words: Inhibition of HIV1 reverse transcriptase assessed as reduction in [3H]dTTP incorporation by measuring proportional residual activity ratio at 100 uM using poly(rA)/oligo(dT) as template/primer after 30 mins by scintillation counting method.
Test [2] addresses T1, Human immunodeficiency virus type 1 reverse transcriptase (Human immunodeficiency virus 1, UniProt Q72547). Description: Inhibition of HIV1 reverse transcriptase assessed as reduction in [3H]dTTP incorporation using poly(rA)/oligo(dT) as template/primer after 30 mins by scintillation counting method.
The target in test [3] is T1, Human immunodeficiency virus type 1 reverse transcriptase. In words: Inhibition of HIV1 reverse transcriptase assessed as reduction in [3H]dTTP incorporation using poly(rA)/oligo(dT) as template/primer after 30 mins in presence of calf thymus DNA by scintillation counting method.
For test [4] the target is unchanged. Description: Inhibition of HIV1 reverse transcriptase assessed as reduction in [3H]dTTP incorporation using poly(rA)/oligo(dT) as template/primer after 30 mins in presence of Triton-X-100 by scintillation counting method.
Test [5] has as its target Human immunodeficiency virus type 1 reverse transcriptase (Human immunodeficiency virus 1) (UniProt Q72547). In words: Inhibition of HIV1 reverse transcriptase assessed as reduction in [3H]dTTP incorporation by measuring proportional residual activity ratio at 20 uM using poly(rA)/oligo(dT) as template/primer after 30 mins by scintillation counting method relative to control.

Test [6] has the same target. In words: Ratio of IC50 for inhibition of HIV1 reverse transcriptase in presence of calf thymus DNA to IC50 for inhibition of HIV1 reverse transcriptase in absence of calf thymus DNA.
Test [7] deals with T2, DNA polymerase alpha catalytic subunit (Homo sapiens) (UniProt P09884).
T2 sequence (whole entry): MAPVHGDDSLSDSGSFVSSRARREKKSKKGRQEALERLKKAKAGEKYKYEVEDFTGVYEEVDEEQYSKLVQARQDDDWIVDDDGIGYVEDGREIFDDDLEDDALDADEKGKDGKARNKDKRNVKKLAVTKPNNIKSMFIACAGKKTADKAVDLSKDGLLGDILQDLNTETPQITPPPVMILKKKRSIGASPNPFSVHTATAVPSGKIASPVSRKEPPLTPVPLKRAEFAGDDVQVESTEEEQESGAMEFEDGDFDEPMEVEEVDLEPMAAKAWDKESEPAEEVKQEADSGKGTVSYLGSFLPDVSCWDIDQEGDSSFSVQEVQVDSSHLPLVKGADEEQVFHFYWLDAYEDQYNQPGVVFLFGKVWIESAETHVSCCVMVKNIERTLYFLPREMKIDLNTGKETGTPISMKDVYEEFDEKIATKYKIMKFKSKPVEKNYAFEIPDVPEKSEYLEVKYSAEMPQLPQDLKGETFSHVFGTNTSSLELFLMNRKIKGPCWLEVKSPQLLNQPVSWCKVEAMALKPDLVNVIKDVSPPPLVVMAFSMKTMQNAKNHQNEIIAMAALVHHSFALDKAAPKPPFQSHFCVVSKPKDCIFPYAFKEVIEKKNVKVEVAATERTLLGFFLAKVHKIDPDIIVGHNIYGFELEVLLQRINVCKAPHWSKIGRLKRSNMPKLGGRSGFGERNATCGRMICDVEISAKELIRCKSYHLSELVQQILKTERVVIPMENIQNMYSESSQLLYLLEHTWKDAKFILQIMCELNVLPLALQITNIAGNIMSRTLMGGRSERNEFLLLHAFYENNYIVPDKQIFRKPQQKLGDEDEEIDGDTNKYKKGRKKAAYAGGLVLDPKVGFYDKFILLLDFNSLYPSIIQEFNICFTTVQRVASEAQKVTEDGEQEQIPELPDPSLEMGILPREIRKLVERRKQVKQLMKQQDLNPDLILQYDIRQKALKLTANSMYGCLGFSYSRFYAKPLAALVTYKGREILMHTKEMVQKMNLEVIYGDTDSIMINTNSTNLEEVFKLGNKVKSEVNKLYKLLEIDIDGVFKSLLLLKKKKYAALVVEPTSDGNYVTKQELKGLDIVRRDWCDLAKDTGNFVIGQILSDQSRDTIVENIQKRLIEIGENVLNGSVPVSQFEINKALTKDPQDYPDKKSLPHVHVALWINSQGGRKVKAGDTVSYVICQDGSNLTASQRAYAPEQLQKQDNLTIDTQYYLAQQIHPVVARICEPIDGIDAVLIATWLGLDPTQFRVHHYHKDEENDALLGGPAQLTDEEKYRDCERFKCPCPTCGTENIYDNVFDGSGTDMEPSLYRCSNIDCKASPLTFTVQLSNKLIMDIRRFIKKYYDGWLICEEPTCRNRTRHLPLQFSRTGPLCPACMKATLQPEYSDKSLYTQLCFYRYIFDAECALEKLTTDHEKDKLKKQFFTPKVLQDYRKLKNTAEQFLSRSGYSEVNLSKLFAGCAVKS
Description: Inhibition of human DNA polymerase-alpha assessed as reduction in [3H]dTTP incorporation in to activated calf thymus DNA substrate at 600 uM after 30 mins by scintillation counting method relative to control.

The target of test [8] is Human immunodeficiency virus type 1 reverse transcriptase (Human immunodeficiency virus 1) (UniProt Q72547). In words: Inhibition of HIV1 reverse transcriptase assessed as reduction in [3H]dTTP incorporation by measuring proportional residual activity ratio at 300 uM using poly(rA)/oligo(dT) as template/primer after 30 mins by scintillation counting method.

Where a SMILES comes first, the peptide text is derived from it. Bridges are numbered along the chain shown (N, C = ends). [ ]: non-standard residue; d: D form. The star is where a group is joined. ξ: configuration not given here. Quinoxaline2carbonyl = O=C(c1cnc2ccccc2n1)*; ξDap = NCC(N)C(=O)O

Regarding `NC(=O)[C@@H](Cc1c[nH]c2ccccc12)NC(=O)CCCNC(=O)[C@@H](N)Cc1c[nH]c2ccccc12`, the Ratio in test [1] is 0.78.

For `COc1ccc2cc([C@H](C)C(=O)O)ccc2c1` [NAPROXEN SODIUM], in test [2], the IC50 (in general, the concentration at which inhibition is half-maximal) was 6700 µM.

With `NCC1NC(=O)C[C@@H](C(N)=O)NC(=O)C(CNC(=O)c2cnc3ccccc3n2)NC(=O)CNC(=O)CNC(=O)CNC(=O)C(CNC(=O)c2cnc3ccccc3n2)NC1=O` (stereo partly drawn) ([ξDap][ξDap](Quinoxaline2carbonyl)GGG[ξDap](Quinoxaline2carbonyl)D-NH2; lactam N-7), the half-maximal inhibitory concentration (IC50) in test [3] worked out at 21.8 µM; in test [2], 6.5 µM; in test [4] it was 7 µM. The Ratio in test [5] was 0.09. Also, the Ratio IC50 in test [6] came out at 3.5. Besides, the inhibition (as a rule, the change of the read-out against control, counted positive when it falls) in test [7] turned out to be 89%.

With `NC(=O)[C@@H](Cc1c[nH]c2ccccc12)NC(=O)CCNC(=O)[C@H](N)Cc1c[nH]c2ccccc12`, in test [1], the Ratio is 0.39.

`O=C(O)c1cnc2ccccc2c1`: the IC50 in test [2] amounted to 2400 µM.

Regarding `NC(=O)[C@H](Cc1c[nH]c2ccccc12)NC(=O)CCNC(=O)[C@H](N)Cc1c[nH]c2ccccc12`, the Ratio in test [8] was 0.3. Besides, the IC50 in test [2] is 188 µM.

With `NC(=O)[C@H](Cc1c[nH]c2ccccc12)NC(=O)CCCNC(=O)[C@@H](N)Cc1c[nH]c2ccccc12`, the Ratio in test [1] stood at 0.55.

Regarding `COc1cc(NC(C)CCCN)c2ncccc2c1` (stereo unspecified) [PRIMAQUINE PHOSPHATE], the IC50 in test [2] was 100 µM.

As for `NC(=O)[C@@H](N)Cc1c[nH]c2ccccc12`, the figures for the IC50 in test [2] and in test [4] were 9900 µM and 15700 µM, respectively.

On to `O=C(O)c1cnc2ccccc2n1`, for which, in test [2], the IC50 was 320 µM.

With `O=C(O)c1ccnc2ccccc12`, in test [2], the IC50 was 9600 µM.

As to `NC(=O)[C@H](Cc1c[nH]c2ccccc12)NC(=O)CCNC(=O)[C@@H](N)Cc1c[nH]c2ccccc12`, the Ratio in test [8] worked out at 0.25. Further, in test [2], the IC50 is 227 µM.

Take `NCC1NC(=O)C[C@@H](C(N)=O)NC(=O)CNC(=O)C(CNC(=O)c2cnc3ccccc3n2)NC(=O)CNC(=O)C(CNC(=O)c2cnc3ccccc3n2)NC(=O)C(CNC(=O)c2cnc3ccccc3n2)NC1=O` (stereo partly specified) ([ξDap][ξDap](Quinoxaline2carbonyl)[ξDap](Quinoxaline2carbonyl)G[ξDap](Quinoxaline2carbonyl)GD-NH2; lactam N-7): the Ratio in test [5] is 0.03.

(Values after ChEMBL document CHEMBL4371080, “Multiple weak intercalation as a strategy for the inhibition of polymerases” (Bioorg Med Chem Lett, 2019).)
